Assays:
[1] = molecular target: Tyrosine-protein kinase Srms (Homo sapiens) (UniProt Q9H3Y6); details: Compound concentration 1000.0 nM
[2] = molecular target: Serine/threonine-protein kinase D1 (Homo sapiens) (UniProt Q15139); details: Compound concentration 1000.0 nM
[3] = molecular target: Citron Rho-interacting kinase (Homo sapiens) (UniProt O14578); details: Compound concentration 1000.0 nM
[4] = system: Mast/stem cell growth factor receptor Kit (Homo sapiens), P10721 [D816V]; details: Compound concentration 1000.0 nM
[5] = molecular target: Vascular endothelial growth factor receptor 1 (Homo sapiens) (UniProt P17948); details: Compound concentration 1000.0 nM
[6] = molecular target: Cyclin-dependent kinase 17 (Homo sapiens) (UniProt Q00537); details: Compound concentration 1000.0 nM
[7] = molecular target: Serine/threonine-protein kinase Nek5 (Homo sapiens) (UniProt Q6P3R8); details: Compound concentration 1000.0 nM
[8] = molecular target: Mitogen-activated protein kinase kinase kinase 13 (Homo sapiens) (UniProt O43283); details: Compound concentration 1000.0 nM
[9] = molecular target: Phosphatidylinositol 4,5-bisphosphate 3-kinase catalytic subunit gamma isoform (Homo sapiens) (UniProt P48736); details: Compound concentration 1000.0 nM
[10] = molecular target: SRSF protein kinase 2 (Homo sapiens) (UniProt P78362); details: Compound concentration 1000.0 nM
[11] = molecular target: Tyrosine-protein kinase CSK (Homo sapiens) (UniProt P41240); details: Compound concentration 1000.0 nM
[12] = molecular target: Ankyrin repeat and protein kinase domain-containing protein 1 (Homo sapiens) (UniProt Q8NFD2); details: Compound concentration 1000.0 nM
[13] = molecular target: Serine/threonine-protein kinase 35 (Homo sapiens) (UniProt Q8TDR2); details: Compound concentration 1000.0 nM
[14] = molecular target: Mitogen-activated protein kinase kinase kinase 2 (Homo sapiens) (UniProt Q9Y2U5); details: Compound concentration 1000.0 nM
[15] = molecular target: Casein kinase II subunit alpha' (Homo sapiens) (UniProt P19784); details: Compound concentration 1000.0 nM
[16] = molecular target: Dual specificity mitogen-activated protein kinase kinase 7 (Homo sapiens) (UniProt O14733); details: Compound concentration 1000.0 nM
[17] = molecular target: Discoidin domain-containing receptor 2 (Homo sapiens) (UniProt Q16832); details: Compound concentration 1000.0 nM
[18] = molecular target: Proto-oncogene tyrosine-protein kinase receptor Ret (Homo sapiens) (UniProt P07949); details: Compound concentration 1000.0 nM
[19] = molecular target: Serine/threonine-protein kinase BRSK1 (Homo sapiens) (UniProt Q8TDC3); details: Compound concentration 1000.0 nM
[20] = molecular target: Mitogen-activated protein kinase kinase kinase 19 (Homo sapiens) (UniProt Q56UN5); details: Compound concentration 1000.0 nM
[21] = molecular target: Non-receptor tyrosine-protein kinase TYK2 (Homo sapiens) (UniProt P29597); details: Compound concentration 1000.0 nM
[22] = molecular target: Ribosomal protein S6 kinase alpha-1 (Homo sapiens) (UniProt Q15418); details: Compound concentration 1000.0 nM
[23] = molecular target: Calcium/calmodulin-dependent protein kinase kinase 1 (Homo sapiens) (UniProt Q8N5S9); details: Compound concentration 1000.0 nM
[24] = molecular target: Histamine H3 receptor (Homo sapiens) (UniProt Q9Y5N1); details: Compound concentration 10.0 uM
[25] = molecular target: Hormonally up-regulated neu tumor-associated kinase (Homo sapiens) (UniProt P57058); details: Compound concentration 1000.0 nM
[26] = molecular target: Interleukin-1 receptor-associated kinase 4 (Homo sapiens) (UniProt Q9NWZ3); details: Compound concentration 1000.0 nM
[27] = molecular target: Tyrosine-protein kinase ABL1 (Homo sapiens) (UniProt P00519); details: Compound concentration 1000.0 nM
[28] = molecular target: Serine/threonine-protein kinase Nek4 (Homo sapiens) (UniProt P51957); details: Compound concentration 1000.0 nM
[29] = molecular target: Serine/threonine-protein kinase VRK2 (Homo sapiens) (UniProt Q86Y07); details: Compound concentration 1000.0 nM
[30] = molecular target: Dual specificity protein kinase TTK (Homo sapiens) (UniProt P33981); details: Compound concentration 1000.0 nM
[31] = system: Phosphatidylinositol 4,5-bisphosphate 3-kinase catalytic subunit alpha isoform (Homo sapiens), P42336 [H1047Y]; details: Compound concentration 1000.0 nM
[32] = molecular target: Serine/threonine-protein kinase Nek3 (Homo sapiens) (UniProt P51956); details: Compound concentration 1000.0 nM
[33] = molecular target: Tyrosine-protein kinase FRK (Homo sapiens) (UniProt P42685); details: Compound concentration 1000.0 nM
[34] = molecular target: Serine/threonine-protein kinase Nek7 (Homo sapiens) (UniProt Q8TDX7); details: Compound concentration 1000.0 nM
[35] = molecular target: Dual specificity protein kinase CLK4 (Homo sapiens) (UniProt Q9HAZ1); details: Compound concentration 1000.0 nM
[36] = molecular target: Ephrin type-A receptor 1 (Homo sapiens) (UniProt P21709); details: Compound concentration 1000.0 nM
[37] = system: Phosphatidylinositol 4,5-bisphosphate 3-kinase catalytic subunit alpha isoform (Homo sapiens), P42336 [E542K]; details: Compound concentration 1000.0 nM
[38] = molecular target: Phosphatidylinositol 5-phosphate 4-kinase type-2 beta (Homo sapiens) (UniProt P78356); details: Compound concentration 1000.0 nM
[39] = molecular target: Cyclin-dependent kinase 4 (Homo sapiens) (UniProt P11802); details: Compound concentration 1000.0 nM
[40] = molecular target: Kappa-type opioid receptor (Homo sapiens) (UniProt P41145); details: Compound concentration 10.0 uM
[41] = molecular target: Serine/threonine-protein kinase LATS1 (Homo sapiens) (UniProt O95835); details: Compound concentration 1000.0 nM
[42] = molecular target: Serine/threonine-protein kinase NIM1 (Homo sapiens) (UniProt Q8IY84); details: Compound concentration 1000.0 nM
[43] = molecular target: Cyclin-dependent kinase 4 (Homo sapiens) (UniProt P11802); details: Compound concentration 1000.0 nM; remark: listed apart in the source
[44] = system: Mast/stem cell growth factor receptor Kit (Homo sapiens), P10721 [V559D,T670I]; details: Compound concentration 1000.0 nM
[45] = system: Epidermal growth factor receptor (Homo sapiens), P00533 [UNDEFINED MUTATION]; details: Compound concentration 1000.0 nM

Cyclin-dependent kinase 4 (Homo sapiens), sequence (P11802 whole entry): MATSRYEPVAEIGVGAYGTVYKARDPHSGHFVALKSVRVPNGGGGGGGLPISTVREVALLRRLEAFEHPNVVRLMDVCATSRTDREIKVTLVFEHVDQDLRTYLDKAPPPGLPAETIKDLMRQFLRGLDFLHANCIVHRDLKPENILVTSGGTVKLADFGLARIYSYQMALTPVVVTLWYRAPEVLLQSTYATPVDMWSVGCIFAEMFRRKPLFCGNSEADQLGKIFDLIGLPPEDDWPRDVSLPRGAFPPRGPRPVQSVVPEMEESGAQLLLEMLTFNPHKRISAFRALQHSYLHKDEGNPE
Serine/threonine-protein kinase 35 (Homo sapiens), sequence (Q8TDR2 whole entry): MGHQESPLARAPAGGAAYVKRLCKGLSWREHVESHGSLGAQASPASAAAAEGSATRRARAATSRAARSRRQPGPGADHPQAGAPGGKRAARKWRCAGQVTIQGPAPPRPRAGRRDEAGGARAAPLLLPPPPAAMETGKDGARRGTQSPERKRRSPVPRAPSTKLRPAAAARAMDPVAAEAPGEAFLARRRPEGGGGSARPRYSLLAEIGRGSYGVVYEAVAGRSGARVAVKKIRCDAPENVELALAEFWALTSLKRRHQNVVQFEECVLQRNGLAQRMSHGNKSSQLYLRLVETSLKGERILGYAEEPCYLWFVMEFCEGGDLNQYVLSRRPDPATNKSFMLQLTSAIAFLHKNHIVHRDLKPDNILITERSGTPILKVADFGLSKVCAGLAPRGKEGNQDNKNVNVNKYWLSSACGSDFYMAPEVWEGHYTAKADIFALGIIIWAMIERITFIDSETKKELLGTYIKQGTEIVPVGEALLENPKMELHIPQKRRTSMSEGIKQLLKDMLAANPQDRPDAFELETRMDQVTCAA
Mast/stem cell growth factor receptor Kit (Homo sapiens), P10721 [D816V], sequence (P10721 whole entry D816V): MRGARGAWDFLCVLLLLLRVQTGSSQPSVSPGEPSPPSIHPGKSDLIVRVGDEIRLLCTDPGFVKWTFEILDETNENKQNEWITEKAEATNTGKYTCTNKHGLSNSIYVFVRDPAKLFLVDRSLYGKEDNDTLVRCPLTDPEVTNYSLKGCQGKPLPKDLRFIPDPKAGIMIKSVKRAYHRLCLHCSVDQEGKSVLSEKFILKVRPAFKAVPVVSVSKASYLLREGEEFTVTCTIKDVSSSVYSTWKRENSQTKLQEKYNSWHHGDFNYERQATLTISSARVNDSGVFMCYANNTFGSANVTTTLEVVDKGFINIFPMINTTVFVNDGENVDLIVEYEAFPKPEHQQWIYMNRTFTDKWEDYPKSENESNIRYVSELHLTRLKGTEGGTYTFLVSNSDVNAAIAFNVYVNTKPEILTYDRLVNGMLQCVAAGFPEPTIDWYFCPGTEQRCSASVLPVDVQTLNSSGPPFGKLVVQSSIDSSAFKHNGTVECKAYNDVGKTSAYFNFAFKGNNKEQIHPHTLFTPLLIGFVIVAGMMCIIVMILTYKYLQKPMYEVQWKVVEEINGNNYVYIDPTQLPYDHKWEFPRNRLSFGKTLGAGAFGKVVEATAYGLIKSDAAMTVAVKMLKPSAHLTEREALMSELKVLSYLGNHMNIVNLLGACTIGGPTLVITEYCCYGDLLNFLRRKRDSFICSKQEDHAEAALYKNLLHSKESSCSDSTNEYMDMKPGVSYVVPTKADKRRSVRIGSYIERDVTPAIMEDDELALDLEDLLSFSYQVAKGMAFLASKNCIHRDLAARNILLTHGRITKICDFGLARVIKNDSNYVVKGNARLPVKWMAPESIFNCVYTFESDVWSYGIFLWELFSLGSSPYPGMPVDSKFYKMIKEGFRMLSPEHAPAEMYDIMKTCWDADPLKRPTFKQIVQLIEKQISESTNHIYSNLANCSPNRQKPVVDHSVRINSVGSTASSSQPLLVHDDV
Tyrosine-protein kinase Srms (Homo sapiens), sequence (Q9H3Y6 whole entry): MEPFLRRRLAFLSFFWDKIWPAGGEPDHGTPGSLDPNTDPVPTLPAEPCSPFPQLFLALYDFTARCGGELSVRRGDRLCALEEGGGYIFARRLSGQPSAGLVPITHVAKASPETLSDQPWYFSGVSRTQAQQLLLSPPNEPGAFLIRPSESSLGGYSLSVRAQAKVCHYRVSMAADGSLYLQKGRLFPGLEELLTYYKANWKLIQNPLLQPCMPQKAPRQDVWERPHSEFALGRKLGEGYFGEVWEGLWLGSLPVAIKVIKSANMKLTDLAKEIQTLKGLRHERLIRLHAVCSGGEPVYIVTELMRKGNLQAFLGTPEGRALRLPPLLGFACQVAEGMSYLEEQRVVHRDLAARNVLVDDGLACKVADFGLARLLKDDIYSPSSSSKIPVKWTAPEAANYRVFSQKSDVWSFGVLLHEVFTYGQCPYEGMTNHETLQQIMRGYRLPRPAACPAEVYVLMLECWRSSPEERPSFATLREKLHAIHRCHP
Tyrosine-protein kinase CSK (Homo sapiens), sequence (P41240 2-450 limits assumed): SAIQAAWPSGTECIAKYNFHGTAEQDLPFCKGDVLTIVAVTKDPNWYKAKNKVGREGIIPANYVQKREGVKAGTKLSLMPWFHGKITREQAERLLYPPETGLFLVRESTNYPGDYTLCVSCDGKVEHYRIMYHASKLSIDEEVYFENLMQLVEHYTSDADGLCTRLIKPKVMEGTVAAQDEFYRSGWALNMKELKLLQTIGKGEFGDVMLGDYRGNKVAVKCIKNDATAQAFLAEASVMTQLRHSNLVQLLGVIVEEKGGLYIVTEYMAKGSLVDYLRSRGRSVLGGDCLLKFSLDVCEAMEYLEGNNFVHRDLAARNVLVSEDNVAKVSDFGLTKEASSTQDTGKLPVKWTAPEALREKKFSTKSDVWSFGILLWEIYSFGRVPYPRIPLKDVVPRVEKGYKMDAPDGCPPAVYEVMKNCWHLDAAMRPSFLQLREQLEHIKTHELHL
Histamine H3 receptor (Homo sapiens), sequence (Q9Y5N1 whole entry): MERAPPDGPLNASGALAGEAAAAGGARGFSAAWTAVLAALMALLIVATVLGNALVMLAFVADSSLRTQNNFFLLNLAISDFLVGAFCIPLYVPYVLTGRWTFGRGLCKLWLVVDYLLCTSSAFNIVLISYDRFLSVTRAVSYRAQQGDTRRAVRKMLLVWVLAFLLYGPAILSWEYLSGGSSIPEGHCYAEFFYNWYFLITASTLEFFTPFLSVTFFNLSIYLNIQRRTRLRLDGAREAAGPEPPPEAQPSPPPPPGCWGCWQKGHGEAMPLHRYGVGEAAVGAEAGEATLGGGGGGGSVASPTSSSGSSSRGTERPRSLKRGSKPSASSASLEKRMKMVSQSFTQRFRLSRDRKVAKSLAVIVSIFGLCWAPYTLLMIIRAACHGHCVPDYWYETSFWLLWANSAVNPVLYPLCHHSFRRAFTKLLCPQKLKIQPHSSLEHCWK
Mitogen-activated protein kinase kinase kinase 19 (Homo sapiens), sequence (Q56UN5 whole entry): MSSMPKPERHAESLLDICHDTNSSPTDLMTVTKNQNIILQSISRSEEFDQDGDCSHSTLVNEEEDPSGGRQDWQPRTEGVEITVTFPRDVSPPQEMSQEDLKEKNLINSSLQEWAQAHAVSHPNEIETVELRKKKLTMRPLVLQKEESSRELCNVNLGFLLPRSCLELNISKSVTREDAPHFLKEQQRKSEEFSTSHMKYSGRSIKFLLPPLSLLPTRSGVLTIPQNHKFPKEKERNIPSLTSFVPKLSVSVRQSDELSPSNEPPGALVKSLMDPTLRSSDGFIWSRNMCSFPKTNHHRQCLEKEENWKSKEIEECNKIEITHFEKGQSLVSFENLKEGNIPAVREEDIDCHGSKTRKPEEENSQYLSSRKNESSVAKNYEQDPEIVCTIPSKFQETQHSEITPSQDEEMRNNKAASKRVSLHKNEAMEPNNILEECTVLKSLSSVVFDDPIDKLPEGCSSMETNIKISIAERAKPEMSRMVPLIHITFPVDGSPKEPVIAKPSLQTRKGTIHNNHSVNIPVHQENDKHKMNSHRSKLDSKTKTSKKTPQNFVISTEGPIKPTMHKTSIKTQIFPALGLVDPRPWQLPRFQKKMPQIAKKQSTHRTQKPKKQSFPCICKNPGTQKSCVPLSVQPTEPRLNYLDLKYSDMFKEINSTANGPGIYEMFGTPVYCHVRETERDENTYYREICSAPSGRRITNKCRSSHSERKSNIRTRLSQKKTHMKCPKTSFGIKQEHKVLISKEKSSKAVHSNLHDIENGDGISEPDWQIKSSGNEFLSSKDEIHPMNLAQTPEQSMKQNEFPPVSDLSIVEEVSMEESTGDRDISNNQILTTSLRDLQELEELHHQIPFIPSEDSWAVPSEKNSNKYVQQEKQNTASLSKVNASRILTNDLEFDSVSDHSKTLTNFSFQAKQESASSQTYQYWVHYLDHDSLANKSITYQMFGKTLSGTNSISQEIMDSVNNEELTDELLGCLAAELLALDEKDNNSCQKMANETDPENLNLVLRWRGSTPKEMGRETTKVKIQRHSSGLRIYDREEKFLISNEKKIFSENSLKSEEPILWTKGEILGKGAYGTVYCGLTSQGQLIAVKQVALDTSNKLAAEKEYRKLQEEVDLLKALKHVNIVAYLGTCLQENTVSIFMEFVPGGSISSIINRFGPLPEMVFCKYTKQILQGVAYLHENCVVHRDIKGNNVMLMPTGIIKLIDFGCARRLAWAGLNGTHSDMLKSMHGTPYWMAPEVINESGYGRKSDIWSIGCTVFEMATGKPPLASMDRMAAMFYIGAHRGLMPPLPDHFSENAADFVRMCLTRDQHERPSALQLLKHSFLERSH
Dual specificity protein kinase CLK4 (Homo sapiens), sequence (Q9HAZ1 whole entry, looked up): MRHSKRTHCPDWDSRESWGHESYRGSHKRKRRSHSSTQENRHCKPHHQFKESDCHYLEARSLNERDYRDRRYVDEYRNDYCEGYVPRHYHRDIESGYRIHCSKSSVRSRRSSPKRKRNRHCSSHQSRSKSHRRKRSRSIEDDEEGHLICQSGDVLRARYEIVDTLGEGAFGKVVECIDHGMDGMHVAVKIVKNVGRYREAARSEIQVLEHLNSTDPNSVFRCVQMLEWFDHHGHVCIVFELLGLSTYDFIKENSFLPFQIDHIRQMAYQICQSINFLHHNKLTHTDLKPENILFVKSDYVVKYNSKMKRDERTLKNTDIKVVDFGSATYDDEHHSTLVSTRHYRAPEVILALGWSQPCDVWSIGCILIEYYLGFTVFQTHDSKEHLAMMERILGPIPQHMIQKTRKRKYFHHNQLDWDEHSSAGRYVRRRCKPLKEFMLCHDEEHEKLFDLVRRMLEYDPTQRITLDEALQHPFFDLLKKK

N#CC1(c2ccccn2)CCN(Cc2cc(C(=O)N3CCCC3)c(=O)n3ccccc23)CC1
inactive: residual activity [1] 100% | residual activity [2] 95% | residual activity [3] 99% | residual activity [4] 100% | residual activity [5] 100% | residual activity [6] 82% | residual activity [7] 82% | residual activity [8] 100% | residual activity [9] 75% | residual activity [10] 84% | residual activity [11] 91% | residual activity [12] 79% | residual activity [13] 96% | residual activity [14] 100% | residual activity [15] 98% | residual activity [16] 100% | residual activity [17] 100% | residual activity [18] 74% | residual activity [19] 87% | residual activity [20] 100% | residual activity [21] 91% | residual activity [22] 79% | residual activity [23] 100% | inhibition [24] 11.2% | residual activity [25] 79% | residual activity [26] 100% | residual activity [27] 89% | residual activity [28] 88% | residual activity [29] 100% | residual activity [30] 98% | residual activity [31] 64% | residual activity [32] 83% | residual activity [33] 80% | residual activity [34] 82% | residual activity [35] 97% | residual activity [36] 83% | residual activity [37] 90% | residual activity [38] 62% | residual activity [39] 91% | inhibition [40] 46.8% | residual activity [41] 100% | residual activity [42] 95% | residual activity [43] 98% | residual activity [44] 88% | residual activity [45] 77%

N#CC1(c2ccccn2)CCN(Cc2cc(C(=O)O)c(=O)n3ccccc23)CC1 [MSD-M1PAM]
inactive: residual activity [1] 93% | residual activity [2] 87% | residual activity [3] 98% | residual activity [4] 100% | residual activity [5] 92% | residual activity [6] 96% | residual activity [7] 100% | residual activity [8] 78% | residual activity [9] 91% | residual activity [10] 100% | residual activity [11] 100% | residual activity [12] 68% | residual activity [13] 94% | residual activity [14] 76% | residual activity [15] 86% | residual activity [16] 95% | residual activity [17] 100% | residual activity [18] 95% | residual activity [19] 100% | residual activity [20] 77% | residual activity [21] 99% | residual activity [22] 100% | residual activity [23] 100% | inhibition [24] 4.08% | residual activity [25] 100% | residual activity [26] 83% | residual activity [27] 100% | residual activity [28] 100% | residual activity [29] 100% | residual activity [30] 88% | residual activity [31] 100% | residual activity [32] 66% | residual activity [33] 100% | residual activity [34] 100% | residual activity [35] 100% | residual activity [36] 100% | residual activity [37] 87% | residual activity [38] 100% | residual activity [39] 94% | inhibition [40] 47.3% | residual activity [41] 100% | residual activity [42] 69% | residual activity [43] 82% | residual activity [44] 100% | residual activity [45] 97%
